Data from patent US11478457B2, “Castration-resistant prostate cancer” (priority 2015, dated 2022).

Molecular target: T1, UDP-glucose dehydrogenase (Homo sapiens, UniProt O60701)
T1 sequence (O60701 1-494): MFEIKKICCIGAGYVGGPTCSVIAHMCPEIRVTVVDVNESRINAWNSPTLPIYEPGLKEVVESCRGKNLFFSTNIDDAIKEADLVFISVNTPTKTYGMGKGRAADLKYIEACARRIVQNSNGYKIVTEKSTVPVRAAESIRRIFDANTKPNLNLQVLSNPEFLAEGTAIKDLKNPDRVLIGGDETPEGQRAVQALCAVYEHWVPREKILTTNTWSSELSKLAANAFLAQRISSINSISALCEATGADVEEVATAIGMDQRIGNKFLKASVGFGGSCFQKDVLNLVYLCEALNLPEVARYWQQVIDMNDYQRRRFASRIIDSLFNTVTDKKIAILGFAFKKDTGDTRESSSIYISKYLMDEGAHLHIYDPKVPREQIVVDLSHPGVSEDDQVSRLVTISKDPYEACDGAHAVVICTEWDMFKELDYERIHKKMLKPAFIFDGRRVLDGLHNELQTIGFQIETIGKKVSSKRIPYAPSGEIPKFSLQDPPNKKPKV
Assay: High throughput screening for inhibitors of UDP-glucose dehydrogenase (NADH fluorescence)
Format: biochemical
Conditions: for inhibition at 25 µg/mL (stock): compound plates 20 μL/well of 25 μg/mL compound in 2.5% DMSO, relative to DMSO negative and UDP-xylose positive controls, higher POC = more inhibitory, read-out: POC (Percent of Controls)

Row | SMILES | inhibition at 25 µg/mL (stock) [%] | POC (Percent of Controls) [%]
1 | CCN(CC)c1ccc(N)c(C)c1 | 46 | 
2 | CCSc1sc(SC#N)cc1SC#N | 83 | 
3 | CC(C)N(CCC#N)S(=O)(=O)c1ccccc1[N+](=O)[O-] | 81 | 
4 | c1ccc(CNc2nc(-c3ccccc3)[n+](-c3ccccc3)s2)cc1 | 106 | 
5 | N#CSC(C#N)Cc1ccccc1 (stereo not drawn) | 59 | 
6 | N#CSC(C#N)Cc1cccc(Cl)c1 (stereo not drawn) | 74 | 
7 | CCc1ccc(NC(Nc2ccc(CC)cc2)=C(S(=O)(=O)CC)S(=O)(=O)CC)cc1 | 47 | 
8 | Nc1ccc(Cc2ccc(N)c(O)c2)cc1O | 62 | 
9 | CC1(C)CC(=O)C2=C(C1)OC(N)=C(C#N)C21CCCC1 | 126 | 
10 | Nc1ccccc1S(=O)(=O)Nc1cccc2cccnc12 | 72 | 
11 | CCCCC(NC(=O)c1cccc(Br)c1)C(=O)O (stereo not drawn) | 103 | 
12 | COc1cc(/C=C(\C)[N+](=O)[O-])cc(OC)c1OC | 61 | 
13 | CC/C(=C/c1ccc(O)c(OC)c1)[N+](=O)[O-] | 63 | 
14 | COCc1cc(C(C)(C)C)c(O)c(O)c1C(C)(C)C | 56 | 
15 | CN1CCc2c(sc(N)c2C#N)C1 | 55 | 
16 | Nc1ncc(C2=C(Cl)C(O)C(Cl)=C(Cl)C2O)s1 (stereo not drawn) | 71 | 
17 | N#CSc1cnc(NC2CCCCC2)s1 | 66 | 
18 | Cc1ccccc1-c1nnc(N)s1 | 51 | 
19 | CCc1c(C)sc(NC(=O)c2ccoc2C)c1C(N)=O | 50 | 
20 | NC(=O)c1c(NC(=O)C2CCCO2)sc2c1CCCCCC2 (stereo not drawn) | 74 | 
21 | Brc1ccc(C2Nc3ccccc3N2)o1 | 65 | 
22 | Cc1cc(=O)n2ccc(N)c(O)c2n1 | 50 | 
23 | c1ccc(Nc2nc(-c3ccccc3)[n+](-c3ccccc3)s2)cc1 | 52 | 
24 | O=C1CC(Sc2nc3ccccc3s2)C(=O)N1c1ccccc1I (stereo not drawn) | 58 | 
25 | CN(C)c1ccc(NC(=O)C2C3C=CC(C3)C2C(=O)O)cc1 (stereo not drawn) | 56 | 
26 | O=C1CC(Sc2ccccn2)C(=O)N1c1cccc(Cl)c1Cl (stereo not drawn) | 49 | 
27 | C[n+]1sc(Nc2ccccc2)nc1-c1ccccc1 | 58 | 

Row | SMILES | inhibition at 25 µg/mL (stock) [%] | POC (Percent of Controls) [%]
28 | O=C(Nc1ccc2nc(-c3ccco3)c(-c3ccco3)nc2c1)N1CCOCC1 | 47 | 
29 | Cc1ccc(OCCn2ccnc2)cc1 | 85 | 
30 | Cc1ccc(-c2csc(N)c2C(N)=O)cc1C | 47 | 
31 | O=C(Nc1nc2c(s1)CCCC2)c1cccs1 | 45 | 
32 | NC(=O)c1c(-c2cccs2)csc1N | 46 | 
33 | CCc1cccc(NC(=O)NC2CCCCC2)c1 | 45 | 
34 | Cc1nnc(SC2CC(=O)N(c3ccc(Br)cc3)C2=O)s1 (stereo not drawn) | 47 | 
35 | O=C(CN1CCCCC1)Nc1ccc(S(=O)(=O)N2CCOCC2)cc1 | 48 | 
36 | O=c1oc2cc(Br)c(O)c(Br)c2s1 | 51 | 
37 | O=C(O[C@@H]1Cc2c(O)cc(O)cc2O[C@@H]1c1cc(O)c(O)c(O)c1-c1c([C@H]2Oc3cc(O)cc(O)c3C[C@H]2OC(=O)c2cc(O)c(O)c(O)c2)cc(O)c(O)c1O)c1cc(O)c(O)c(O)c1 | 73 | 
38 | O=C(O[C@@H]1Cc2c(O)cc(O)cc2O[C@@H]1c1cc(O)c(=O)c2c(O)c(O)cc([C@H]3Oc4cc(O)cc(O)c4C[C@H]3OC(=O)c3cc(O)c(O)c(O)c3)c2c1)c1cc(O)c(O)c(O)c1 | 59 | 
39 | O=C(O[C@@H]1Cc2c(O)cc(O)cc2O[C@@H]1c1cc(O)c(O)c(O)c1-c1c([C@H]2Oc3cc(O)cc(O)c3C[C@H]2O)cc(O)c(O)c1O)c1cc(O)c(O)c(O)c1 | 83 | 
40 | O=C(Oc1cc(O)cc2c1C[C@@H](OC(=O)c1cc(O)c(O)c(O)c1)[C@@H](c1cc(O)c(O)c(O)c1)O2)c1cc(O)c(O)c(O)c1 | 67 | 
41 | O=c1c(O)cc([C@H]2Oc3cc(O)cc(O)c3C[C@H]2O)cc2c([C@H]3Oc4cc(O)cc(O)c4C[C@H]3O)cc(O)c(O)c12 | 83 | 
42 | O=C(O[C@@H]1Cc2c(O)cc(O)cc2O[C@@H]1c1cc(O)c(O)c(O)c1)c1cc(O)c(O)c(O)c1 | 76 | 
43 | O=C(O[C@@H]1Cc2c(O)cc(O)cc2O[C@@H]1c1cc(O)c(=O)c2c(O)c(O)cc([C@H]3Oc4cc(O)cc(O)c4C[C@H]3O)c2c1)c1cc(O)c(O)c(O)c1 | 76 | 
44 | O=C(O)c1cc(O)c(O)c(O)c1 | 71 | 
45 | O=c1c(O)cccc2ccc(O)c(O)c12 | 73 | 
46 | CC(=O)Oc1cc(-c2coc3cc(OC(C)=O)c(OC(C)=O)c(OC(C)=O)c3c2=O)cc(OC(C)=O)c1OC(C)=O | 98 | 
47 | O=c1c(-c2cc(O)c(O)c(O)c2)coc2cc(O)c(O)c(O)c12 | 98 | 
48 | O=c1c(O)cccc2c([C@H]3Oc4cc(O)cc(O)c4C[C@H]3O)cc(O)c(O)c12 | 53 | 
49 | O=C([O-])c1ccccc1-c1c2cc(Br)c(=O)cc-2oc2[c]([Hg][OH])c([O-])c(Br)cc12.[Na+].[Na+] |  | 97
50 | O=c1c(O)c(-c2cc(O)c(O)c(O)c2)oc2cc(O)cc(O)c12 | 91 | 
51 | O=C1c2ccc(O)cc2O[C@H](c2cc(O)c(O)c(O)c2)[C@H]1O | 96 | 
52 | O=C(OC[C@H]1O[C@H](OC(=O)c2cc(O)c(O)c(OC(=O)c3cc(O)c(O)c(O)c3)c2)[C@H](OC(=O)c2cc(O)c(O)c(OC(=O)c3cc(O)c(O)c(O)c3)c2)[C@@H](OC(=O)c2cc(O)c(O)c(OC(=O)c3cc(O)c(O)c(O)c3)c2)[C@@H]1OC(=O)c1cc(O)c(O)c(OC(=O)c2cc(O)c(O)c(O)c2)c1)c1cc(O)c(O)c(OC(=O)c2cc(O)c(O)c(O)c2)c1 | 69 | 
53 | CC(C)c1cc2c(c(O)c1O)[C@@]1(C(=O)O)CCCC(C)(C)C1CC2 (stereo partly drawn) | 66 | 

More lines, main results first:

Row | inhibition at 25 µg/mL (stock) [%] | SMILES | POC (Percent of Controls) [%]
54 | 61 | COc1ccc2[nH]cc(CCNC(=O)c3ccc([N+](=O)[O-])cc3)c2c1 | 
55 | 73 | O=C1CC(Sc2nnnn2-c2ccccc2)C(=O)N1c1ccc([N+](=O)[O-])cc1 (stereo not drawn) | 
56 | 80 | N#CSC(C#N)Cc1ccc([N+](=O)[O-])cc1 (stereo not drawn) | 
57 | 88 | N#CSC(C#N)Cc1cccc([N+](=O)[O-])c1 (stereo not drawn) | 
58 | 148 | Cc1ccc(S(=O)(=O)Nc2cccc3ccc(-n4nc(C)cc4C)nc23)cc1 | 
59 | 54 | N#Cc1ccc(Oc2ccc(C(=O)Nc3ccccc3)cc2)cc1 | 
60 | 50 | Nc1ccc(S(=O)(=O)c2ccc(N)c(N)c2)cc1N | 
61 | 88 | Cc1cc(C)n(-c2ccc3cccc([N+](=O)[O-])c3n2)n1 | 
62 | 46 | Nc1ccc(C(=O)c2ccc(N)c(N)c2)cc1N | 
63 | 62 | O=C(Nc1ccc([N+](=O)[O-])cc1)c1ccc(Br)o1 | 
64 | 61 | COc1ccc(NS(=O)(=O)c2cc(C(=O)Nc3ccc(C(=O)O)cc3)ccc2C)cc1 | 
65 | 86 | COc1ccc(-c2nnc(N)o2)cc1 | 
66 | 65 | COc1cc(/C=C2\C(C)=C([N+](=O)[O-])CS2(=O)=O)ccc1O | 
67 | 75 | Cc1sc(NC(=O)Cc2ccc([N+](=O)[O-])cc2)c(C(N)=O)c1C | 
68 | 55 | O=C(/C=C/c1ccco1)c1ccc(NC(=O)c2ccco2)cc1 | 
69 | 51 | CC(=O)C1=C(C)NC(SCc2cccc([N+](=O)[O-])c2)=C(C#N)C1c1cccnc1 (stereo not drawn) | 
70 | 58 | CCc1c(C)sc(NC(=O)c2cccc([N+](=O)[O-])c2C)c1C(N)=O | 
71 | 103 | O=C(Nc1ccc2c(c1)OCCO2)c1cc2ccccc2o1 | 
72 | 46 | O=[N+]([O-])c1ccc2[nH]c(-c3ccco3)nc2c1 | 

Row | inhibition at 25 µg/mL (stock) [%] | SMILES | POC (Percent of Controls) [%]
73 | 70 | COc1cc(NC(=O)COc2ccc(C)cc2C)ccc1NC(=O)c1ccco1 | 
74 | 66 | CCOc1ccc(N/C(=N/N)c2ccc3ccccc3n2)cc1 | 
75 | 46 | O=C(Cc1ccccc1)c1ccc(O)c(O)c1O | 
76 | 57 | COc1ccc(-c2ccc(CCC(=O)O)n2-c2ccc(O)cc2)cc1 | 
77 | 46 | Cc1[nH]nc(-c2ccc(O)c(O)c2O)c1Oc1ccccc1 | 
78 | 57 | COc1ccc(-c2ccc(CCC(=O)O)o2)cc1 | 
79 | 62 | COc1ccc(-c2ccc(CCC(=O)O)[nH]2)cc1 | 
80 | 82 | Cc1ccc(-c2ccc(CCC(=O)O)o2)cc1 | 
81 | 57 | O=[N+]([O-])c1ccc(SCc2ccco2)c2cccnc12 | 
82 | 51 | COCCN1C(=O)C(O)=C(C(=O)c2ccc(OC)c(C)c2)C1c1ccncc1 (stereo not drawn) | 
83 | 47 | CC(C)(C)C(=O)NCCNc1ccc([N+](=O)[O-])cc1 | 
84 | 46 | Cc1cc(O)ccc1NC(=O)c1ccccc1 | 
85 | 68 | COc1ccc(OC)c(N2C(=O)CC(Sc3nc4ccccc4s3)C2=O)c1 (stereo not drawn) | 
86 | 67 | O=C(O)COc1cccc(/C=C/[N+](=O)[O-])c1 | 
87 | 58 | Cc1nnc(SC2CC(=O)N(c3ccc(Oc4ccccc4)cc3)C2=O)s1 (stereo not drawn) | 
88 | 45 | COc1cc(-c2ccc(NC(=O)c3ccoc3C)c(OC)c2)ccc1NC(=O)c1ccoc1C | 
89 | 50 | CCC(=O)Nc1ccc(C(=O)Nc2ccc(Cl)cc2C(=O)O)cc1 | 
90 | 73 | COC(=O)Oc1c(Cl)cc2oc(=O)sc2c1[N+](=O)[O-] | 
